Assay results: patent publication US20160022681A1, “METHODS OF INCREASING LYMPHATIC TRANSPORT” (UNIVERSITY OF ROCHESTER, priority 2012, published 2016)
Entries after “also recorded” stand apart in the source; their conditions may differ. Bridge positions count the residues as written; N and C are the ends. Ends that are not written are not given here.

test system: lymphatic vessels; assay: near-infrared (NIR) imaging of indocyanine green (ICG) transport after footpad injection; assay type: in vivo; conditions: mouse, sildenafil 12 mg/kg intraperitoneally, images taken 20 minutes after treatment, versus saline control
Method: To determine if phosphodiesterase (PDE) inhibitors were capable of increasing lymphatic transport, near-infrared (NIR) imaging of indocyanine green ICG) transport was used. ICG (20 μl of 0.1 mg ICG/ml water) was injected into the footpad Of the animal Where it is taken up by the lymphatic system. The extremity was illuminated with near infrared light (generated with a tungsten halogen source) resulting in near infrared fluorescence at a longer wavelength that was recorded with a near-infrared sensitive camera (Prosilica GC1380; Allied Vision Technologies; Stadtroda, Germany). Excitation and emission wavelengths were separated using Semrock filters (IDEX; Lake Forest, Ill.) from the ICG-A filter set. To determine if PDE inhibitors Were capable of increasing lymphatic transport, sildenafil (12 mg/kg), a PDE5 antagonist, was injected intraperitoneally with ICG into the footpad of a mouse. Saline was used a control.

Row | Compound | ICG uptake into lymphatic vessels / lymphatic system
1 | CCCc1nn(C)c2c(=O)[nH]c(-c3cc(S(=O)(=O)N4CCN(C)CC4)ccc3OCC)nc12 [sildenafil] | increases indocyanine green (ICG) uptake into lymphatic vessels; also recorded: increased ICG uptake into the lymphatic system

test system: lymphatic vessels; assay: not given; conditions: ex vivo studies; cited from earlier work

Row | Compound | lymphatic pulsing and/or flow
2 | substance P (RPKPQQFFGLM-NH2; ends and bridges not checked; UniProt P20366 58-68, looked up) | increase lymphatic pulsing and/or flow
3 | O=S(=O)(O)c1cc(O)ccc1O [doxium] | increase lymphatic pulsing and/or flow
4 | hyaluronidase | increase lymphatic pulsing and/or flow
5 | NC[C@H](O)c1ccc(O)c(O)c1 [norepinephrine] | increase lymphatic pulsing and/or flow
6 | endothelin-1 (CSCSSLMDKECVYFCHLDIIW; disulfide 1-15, 3-11; ends not checked; UniProt P05305 53-73, looked up) | increase lymphatic pulsing and/or flow
7 | CCCCC[C@H](O)/C=C/[C@@H]1[C@@H](C/C=C\CCCC(=O)O)[C@H]2CO[C@@H]1C2 [U46619] | increase lymphatic pulsing and/or flow
